One experiment has as its system E. coli. The experiment is described as follows: Minimum Inhibition Concentration (MIC) and Fractional Inhibitory Concentration (FIC) against E. coli. Type of experiment: cell-based. The following applies: Escherichia coli, single active, tryptic soy broth, 96 well plate, 16-24 hours at 37° C. On the procedure: (§1) Minimum Inhibition Concentration (MIC) Serial dilutions of the active are combined with tryptic soy broth and 0.1 optical density of bacteria in a 96 well plate. The optical density of the mixture is measured after 16-24 hours at 37° C. An increase in optical density represents bacterial growth. The plate is analyzed to determine the minimum concentration needed to inhibit growth of bacteria. Numbers are reported in ppm. The MIC values are determined for thymol and totarol against E. Coli and S. aureus. The MIC dose response assay is conducted just as the MIC, however, one active's concentration is kept constant and the other active's concentration follows a two-fold serial dilution. Fractional Inhibition Concentration (FIC) The MIC values are also determined for thymol in the presence of totarol to determine the Fractional Inhibitory Concentration (FIC). This calculation accounts for the fractional activity of thymol and totarol within a MIC test. [formula] such that: [table]

The next experiment concerns S. aureus. The experiment is described as follows: Minimum Inhibition Concentration (MIC) and Fractional Inhibitory Concentration (FIC) against S. aureus. The following applies: Staphylococcus aureus, single active, tryptic soy broth, 96 well plate, 16-24 hours at 37° C. Type of experiment: cell-based. On the procedure:
as §1

Usually MIC stands for the lowest concentration found to suppress growth. In the case of `CC(C)c1c(O)ccc2c1CC[C@H]1C(C)(C)CCC[C@]21C` [Totarol, totarol], the minimum inhibitory concentration (MIC) in the experiment on E. coli worked out at 125 µg/mL; in the experiment on S. aureus, 31.2 µg/mL.

Take `Cc1ccc(C(C)C)c(O)c1` [Thymol, thymol]: in the experiment with E. coli, the MIC came out at 125 µg/mL.
